Results reported in patent US10442775B2, “Preparation method for eutectic hydrate crystal form II of AHU-377 and diovan trisodium salt” (CRYSTAL PHARMATECH CO., LTD., priority 2015, dated 2019).

Assay: Crystal form stability on storage (no transformation to other forms)
Type: physicochemical
Conditions: 40° C./75% RH; samples packaged in inner double-layered LDPE bags and an outer aluminum foil composite film bag

- Crystalline form stability (transformation to other forms): will not transform to other forms
Substance: trisodium AHU-377 and Valsartan co-crystal hydrate Form II
